For assay [1], the system named is BJ human skin fibroblasts. Briefly: MTS cytotoxicity assay, 72 h, BJ fibroblasts. The class given is cell-based. The settings on record: Homo sapiens, Skin fibroblast, normal fibroblasts. The procedure, abridged: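 Cells were seeded and, the next day, exposed to compounds at 50–0.0975 μmol/L in 2-fold dilutions for 72 h at 37 °C, 5% CO2. MTS/phenazine methosulfate was then added for 1–4 h, absorbance was read at 490 nm, and IC50 values were derived.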
(In general: Tetrazolium dyes change colour on reduction, which living cells bring about.)

Assay [2] deals with Gli1 protein in DU-145 cells. Briefly: Western blot of Gli1 in DU-145 cells, 24 h. It is filed as cell-based, human. The settings on record: DU-145, 24 h, immunoblot. On the procedure: In order to verify that compounds 11a and 11b inhibit the proliferation of A549 and DU-145 through Hh inhibition, we monitored the expression of Hh target genes in these cell lines (Figure 2). […] The decreased protein expression of Gli1 targets Cyclin D1, N-Myc, and Bcl-2 strongly indicates inhibition of its transcriptional activity, and their downregulation correlates with the data obtained by the U-87 MG-Gli-FLuc reporter assay. Importantly, these proteins are involved in cell cycle progression, proliferation, and survival. N-Myc amplification or deregulation of transcription, stability, and degradation is associated with many malignancies,[34] and the observed downregulation induced by 11a and 11b may reduce its oncogenic effect.
Figure 2 Effect of compounds 11a and 11b on the protein expression of the Gli1 transcription factor and its transcriptional targets in A549 (A) and DU145 (B) cells following 24 h of incubation. […]
Cells were washed with PBS and lysed on ice in 200 μL of RIPA (Radioimmunoprecipitation Assay) buffer for 30 min. Then, cell lysates were clarified by centrifugation (15000 rpm, 20 min, 4 °C), and the protein concentration in the collected supernatants was determined using a BCA method (Bicinchoninic Acid test). […] Luminescence signal detection was performed by using an Odyssey FC instrument (LI-COR Biosciences).
For orientation: Immunoblotting shows a protein as a band on a membrane.

The subject of the next assay is DAOY (medulloblastoma). Briefly: MTS cytotoxicity assay, 72 h, DAOY. The class given is cell-based. The note with it: Homo sapiens, read-out: IC50 medulloblastoma (DAYO). An excerpt:
(§1) Concerning nonsmall cell lung carcinoma (NSCLC)-derived cell lines, we selected two subtype groups with different expression levels of GLI1, based on a study by Yuan et al.[35] The first group includes cell lines where GLI1 is highly expressed (A549 and NCI-H522), while the second group includes low GLI1-expressing cell lines (HOP-62 and NCI-H322). It has been established that cell lines expressing high levels of GLI1 are relatively resistant to SMO antagonists due to a hyper-activated HH signaling pathway.[35] […] These interesting findings may indicate the potential of 11b to overcome hyper-activated HH signaling in particular NSCLC subsets. […] Lower activity was observed against medulloblastoma (DAYO) and glioblastoma (T98G)-derived cell lines with an IC50 above 20 μmol/L.
(§2) The human prostate tumor-derived cell line DU145 was obtained from ATCC (American Type Culture Collection) and cultured in RPMI 1640 (Roswell Park Memorial Institute) medium supplemented with 10% (v/v) fetal bovine serum (FBS). Human prostate tumor-derived LNCaP cells were obtained from ATCC and cultured in RPMI 1640 medium supplemented with 10% FBS. […] Finally, the absorbance at 490 nm was measured using an EnVision multifunctional modular reader (PerkinElmer). The IC50 value was determined using Dotmatics software.

For the next assay, the system named is T98G (glioblastoma). Briefly: MTS cytotoxicity assay, 72 h, T98G. The note with it: Homo sapiens. The class given is cell-based.
From the text: as §1, §2

Another assay deals with HOP-62 (NSCLC, low GLI1). Briefly: MTS cytotoxicity assay, 72 h, HOP-62. It is filed as cell-based, human. The note with it: compared with A549.
From the text: as §1, §2

Assay [3] deals with NCI-H322 (NSCLC, low GLI1). Briefly: MTS cytotoxicity assay, 72 h, NCI-H322. The settings on record: compared with A549. It is filed as cell-based, human.
From the text: as §1, §2

SMILES strings stand for the structures. Where only a bound is given, the exact number is not on record here.

Broadly, the IC50 is the concentration at which inhibition is half-maximal. `C=C(C)[C@@H]1CC[C@]2(C(=O)O)CC[C@]3(C)C(CCC4[C@@]5(C)C=C(c6ccoc6)C(=O)C(C)(C)C5CC[C@]43C)C12` (stereo partly shown) [Compound 11b, 2-(Furan-3-yl)-3-oxolupa-1,20(29)-dien-28-oic acid]: the IC50 in assay [1] (Table 1) is 37 µM; in assay [1] (full Table S1), 36.6 µM; in the assay on DAOY (medulloblastoma), > 20 µM; with T98G (glioblastoma), > 20 µM. Also, in assay [2], the “Endogenous Gli1 protein level” value is given as “inhibit the endogenous Gli1 protein level in a dose-dependent manner”. Besides, the “IC50 of HOP-62 relative to A549” value in the assay with HOP-62 (NSCLC, low GLI1) is “almost two times higher”. Moreover, the “IC50 of NCI-H322 relative to A549” value in assay [3] is “almost two times higher”.
For `C=C(C)[C@@H]1CC[C@]2(C(=O)O)CC[C@]3(C)C(CCC4[C@@]5(C)C=C(c6ccco6)C(=O)C(C)(C)C5CC[C@]43C)C12` (stereo partly shown) [Compound 11a, 2-(Furan-2-yl)-3-oxolupa-1,20(29)-dien-28-oic acid], the IC50 in assay [1] (Table 1) was determined as 39 µM; in assay [1] (full Table S1) it was 39.1 µM. In addition, in assay [2], the “Endogenous Gli1 protein level” value is “inhibit the endogenous Gli1 protein level in a dose-dependent manner”.
